Holding throughout (format): biochemical
The target of test [1] is T1, Protein tyrosine phosphatase from Yersinia enterocolitica (YOP) (Yersinia enterocolitica, UniProt P15273).
T1 construct: purchased Calbiochem
As to the kind of experiment: Enzyme activity assay: PTP-catalyzed hydrolysis of substrates by YOP. The conditions noted are these: pH 7.1, room temperature; for Km: read-out: Km (best fit to the Michaelis-Menten equation). An excerpt: (§1) Protein tyrosine phosphatase from Yersinia enterocolitica (YOP)^16 and human T-cell PTP (TCPTP)^17 were obtained from Calbiochem in purified form and used as received. Reagents for solid phase peptide synthesis including Fmoc protected amino acids and Rink Amide resin were obtained from Novabiochem and used without further purification. Trichloroethanol (TCE), resorcinol, dicyclohexylcarbodiimide (DCC) and N,N-dimethylaminopyridine (DMAP) were obtained from Lancaster, isopropenyl chloroformate (IPCF) from Acros Organics, trifluoroacetic acid (TFA) from Oakwood Chemicals and methanesulfonic acid, diethyl chlorophosphate and zinc dust were obtained from Aldrich Chemical Company. Dry solvents were obtained from VWR and Aldrich. Fluorinated resorcinols were synthesized according to a literature procedure.^18 All of the chemicals were used as received, except zinc, which was activated prior to use by washing with 20% HCl, followed by water and acetone.
^1H, ^13C, and ^31P NMR spectra were recorded on Bruker AC 250, Bruker AC 360 and Varian 400 MHz instruments. Peptides were purified on a Varian ProStar 210 HPLC system using a preparative-scale C18 reverse-phase column. Mass spectrometric characterization was carried out using an Applied Biosystems Voyager-DE STR MALDI-TOF instrument with α-cyanohydroxycinnamic acid as the matrix. Enzyme assays with fluorogenic substrates were performed on a Molecular Devices Analyst AD multimode plate reader in fluorescence mode with an excitation filter, emission filter and dichroic mirror at 360 nm, 425 nm, and 400 nm, respectively. Enzymatic hydrolysis of the phosphotyrosine-containing peptide DADE-phpsphotyrosine-GPAA (9a) was followed by observing an increase in absorbance at 280 nm using a Varian Cary50 spectrophotometer.
Standard conditions employed to determine the kinetic constants of each substrate with YOP and TCPTP are described below. Substrates were dissolved in DMSO and diluted to the appropriate concentration in DMSO. Aliquots were taken such that each reaction had the same amount of DMSO, which never exceeded 5% of the reaction volume (usually 200 μL). The buffer used for all studies contained 50 mM HEPES, pH 7.1, 100 mM NaCl, 2 mM EDTA, 0.01% Brij 35, 1 mM dithiothreitol (DTT). Prior to each reaction, the enzyme was incubated in buffer with freshly added DTT for 10 min on ice. […] The increase in signal (absorbance or fluorescence) due to substrate hydrolysis was measured every 60 s for 30 min. […] Standard curves were prepared using authentic samples of the appropriate product, relative fluorescence or absorbance units were converted into concentration of product formed, and the resulting data was fit to the Michaelis-Menten equation, providing kinetic parameters for each substrate.

Test [2] has as its target protein tyrosine kinase Csk (Homo sapiens, UniProt P41240). The test is described as follows: Kinase assay: MU as substrate for Csk. The note with it: fluorescence decrease, ATP, pH 6.8. As to the method:
Currently kinases assays are done using radioactive ATP. We envision that a highly sensitive fluorescence based assay would be more convenient. MU, an analog of CAP, was tested as a substrate for the protein tyrosine kinase Csk, to check the viability of the idea (FIG. 8). […] In addition, the fluorinated derivatives also serve as sensitive fluorescent assays for PTK activity.
Stock solutions of MU were prepared in DMSO to make 1 and 10 mM solutions. For enzymatic assays, various aliquots of each substrate and DMSO (to a total of 5 μL) were placed on a 96 well plate, incubated with 75 μL buffer (30 mM HEPES, 5 mM MgCl2, 0.01% Brij 35, pH 6.8) for 5 mins, treated with 1 μL of 10 mM ATP, followed by 20 μL of 12.8 nM Csk. The decrease in signal (fluorescence) due to substrate phosphorylation was measured every 60 s for 30 min. Each reaction was run in triplicate and the results averaged. Standard curves were prepared using authentic samples of the appropriate substrate, relative fluorescence units were converted into concentration of substrate left unreacted, and the resulting data was fit to the Michaelis-Menten equation, providing kinetic parameters for each substrate.

A further test concerns the target T2, human T-cell PTP (TCPTP) (Homo sapiens, UniProt P17706).
T2 construct: purchased Calbiochem
T2 sequence (P17706 1-415): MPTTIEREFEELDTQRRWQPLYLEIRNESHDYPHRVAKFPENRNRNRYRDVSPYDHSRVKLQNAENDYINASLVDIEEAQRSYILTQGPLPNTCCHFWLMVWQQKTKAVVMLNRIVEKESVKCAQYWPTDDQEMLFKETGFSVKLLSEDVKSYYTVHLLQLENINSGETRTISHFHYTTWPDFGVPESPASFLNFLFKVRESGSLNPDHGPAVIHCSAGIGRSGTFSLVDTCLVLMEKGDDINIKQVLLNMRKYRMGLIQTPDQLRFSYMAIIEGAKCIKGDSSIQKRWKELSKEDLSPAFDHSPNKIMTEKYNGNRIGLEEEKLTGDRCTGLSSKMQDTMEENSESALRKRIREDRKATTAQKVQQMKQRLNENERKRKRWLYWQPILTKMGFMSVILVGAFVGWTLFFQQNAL
The test is described as follows: Enzyme activity assay: PTP-catalyzed hydrolysis of substrates by TCPTP. The conditions noted are these: pH 7.1, 30° C.
Source text: as §1, with “Fluorinated resorcinols were synthesized according to a literature procedure.^18 All of the chemicals were used as received, except zinc, which was activated prior to use by washing with 20% HCl, followed by water and acetone.” left out
^1H, ^13C, and ^31P NMR spectra were recorded on Bruker AC 250, Bruker AC 360 and Varian 400 MHz instruments. […] Enzyme assays with fluorogenic substrates were performed on a Molecular Devices Analyst AD multimode plate reader in fluorescence mode with an excitation filter, emission filter and dichroic mirror at 360 nm, 425 nm, and 400 nm, respectively. Enzymatic hydrolysis of the phosphotyrosine-containing peptide DADE-phpsphotyrosine-GPAA (9a) was followed by observing an increase in absorbance at 280 nm using a Varian Cary50 spectrophotometer. […]

Here are results for four compounds from US9045507B2, “Coumarin-based amino acids for use in enzyme activity and substrate specificity assays” (UNIVERSITY OF SOUTHERN CALIFORNIA, priority 2005, dated 2015).

Where a SMILES comes first, the peptide text is derived from it. [ ]: non-standard residue; d: D form. pY = N[C@@H](Cc1ccc(OP(=O)(O)O)cc1)C(=O)O

T1 sequence (P15273 whole entry): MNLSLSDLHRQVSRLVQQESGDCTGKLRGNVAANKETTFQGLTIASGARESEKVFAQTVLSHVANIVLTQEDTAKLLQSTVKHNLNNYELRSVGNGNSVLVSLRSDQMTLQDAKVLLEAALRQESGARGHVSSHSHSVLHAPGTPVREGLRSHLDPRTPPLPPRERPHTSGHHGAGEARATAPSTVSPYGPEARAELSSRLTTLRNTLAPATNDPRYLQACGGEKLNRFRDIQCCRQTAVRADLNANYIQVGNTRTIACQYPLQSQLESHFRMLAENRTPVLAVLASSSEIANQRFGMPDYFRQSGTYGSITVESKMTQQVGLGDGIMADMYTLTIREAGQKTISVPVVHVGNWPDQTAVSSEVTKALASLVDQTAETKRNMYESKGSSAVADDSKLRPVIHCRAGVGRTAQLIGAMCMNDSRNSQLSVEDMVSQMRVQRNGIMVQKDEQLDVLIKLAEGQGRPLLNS
Sequence of protein tyrosine kinase Csk (P41240 whole entry): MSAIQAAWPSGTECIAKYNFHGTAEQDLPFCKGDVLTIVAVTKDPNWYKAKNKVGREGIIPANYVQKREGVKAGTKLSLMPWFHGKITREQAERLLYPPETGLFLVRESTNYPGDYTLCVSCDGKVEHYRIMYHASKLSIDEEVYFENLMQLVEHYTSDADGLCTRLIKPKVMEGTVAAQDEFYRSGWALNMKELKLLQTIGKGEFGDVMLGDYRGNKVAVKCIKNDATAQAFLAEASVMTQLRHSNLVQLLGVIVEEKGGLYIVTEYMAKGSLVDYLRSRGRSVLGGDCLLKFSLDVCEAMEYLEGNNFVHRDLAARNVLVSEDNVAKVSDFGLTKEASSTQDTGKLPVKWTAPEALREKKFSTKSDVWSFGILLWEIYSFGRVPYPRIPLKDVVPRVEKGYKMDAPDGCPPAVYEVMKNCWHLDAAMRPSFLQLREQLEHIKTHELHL

On to `C[C@H](NC(=O)[C@H](C)NC(=O)[C@@H]1CCCN1C(=O)CNC(=O)[C@H](Cc1ccc(OP(=O)(O)O)cc1)NC(=O)[C@H](CCC(=O)O)NC(=O)[C@H](CC(=O)O)NC(=O)[C@H](C)NC(=O)[C@@H](N)CC(=O)O)C(N)=O` [9a, DADE-pY-GPAA-NH2] (H-DADE[pY]GPAA-NH2), for which, in test [1], the “kcat (best fit to the Michaelis-Menten equation)” value (from here on “kcat”) was 100 ± 20 s⁻¹ and the Michaelis-Menten constant (Km) (commonly the concentration of substrate that gives half-maximal velocity) stood at 2700 ± 800 µM. Regarding `Cc1cc(=O)oc2cc(O)ccc12` [MU, 4-methylumbelliferone], in test [2], the “phosphorylation of substrate by Csk” value is reported as “Csk indeed phosphorylated MU to MUP”. Take `Cc1cc(=O)oc2cc(OP(=O)(O)O)ccc12` [MUP]: in test [1], the “kcat” value amounted to 5.7 ± 0.5 s⁻¹ and the Km was found to be 800 ± 200 µM. Take DADE-pCAP-GPAA-NH2 [10a]: the “kcat” value on human T-cell PTP (TCPTP) worked out at 35 ± 10 s⁻¹. Besides, at human T-cell PTP (TCPTP) (read-out: Km (best fit to the Michaelis-Menten equation)), the Michaelis constant (Km) stood at 800 ± 300 µM.
